Data as given in patent publication US5153352A, “Process for preparation of intermediates of carbocyclic nucleoside analogs” (priority 1990, dated 1992).
≈ marks a conversion by molar mass, not a printed value.

Legend:
[1] = tested on: duck hepatitis B virus (DHBV); assay: efficacy against hepatitis B virus in vivo in ducklings; parameters: species or system Peking duckling infected with duck hepatitis B virus
Method: The test method is an adaptation of the method of Smee, et al., Antimicrob. Agents Chemotherap. 27 277 (1985). The serum level of duck hepatitis B virus (DHBV) DNA was monitored in 6 infected Peking ducklings from age 6 days to age 27 days. Four ducklings were treated with 70 mg/kg/day IP, b.i.d. of the test compound as a 3 mg/ml solution in 0.9% aqueous NaCl on days 10-17. Two control ducklings were treated with 23 ml/kg/day IP, b.i.d. of 0.9% aqueous NaCl on days 10-17. The level of DHBV DNA in the duckling serum was measured daily.

Herpesvirus 1 = assay: in vivo activity against intraperitoneal Herpesvirus 1 challenge in mice; parameters: species or system mouse infected with Herpesvirus 1 (strain 123); settings: for No. Dead/No. Infected: 7 doses; for GMTD (geometric mean time to death): monitored daily for 21 days
Method: Four-week-old female outbred Swiss mice (CD 1, VAF+, Charles River Labs) were housed 5 per Microisolator® cage. Feed and water were supplied ad libitum. Fifteen mice were randomly assigned to each of the following treatment groups:
2. diluent (0.4% CMC/PBS controls)
3. 100 mg/kg test compound
4. 32 mg/kg test compound
5. 10 mg/kg test compound
6. 3.2 mg/kg test compound
Test compounds were diluted in 0.4% carboxymethylcellulose (CMC) prepared in phosphate buffered saline (PBS) at concentrations consistent with dosing at 0.1 ml per 10 q of body weight. Compounds were administered subcutaneously once daily for a total of 7 doses. Five mice in each treatment group served as uninfected toxicity controls. The remaining ten mice in each group were challenged intraperitoneally with an LD90 dose of the twelfth in vivo passage of Herpesvirus 1 (strain 123). Virus challenge was administered two hours after the first dose of compound was given. Mortality was monitored daily for 21 days. The mortality rates, average day of death, geometric mean time to death and virus rating were calculated for each treatment group.

HSV-1(E-377) = assay: plaque reduction, HSV-1(E-377) in Vero cells; format: cell-based, Herpes simplex virus type 1; settings: Human alphaherpesvirus 1, plaque reduction 50%, read-out: MIC50
Method: After the adsorption period, the infected cell monolayers were treated in duplicate with serial dilutions of the test compound. Duplicate cell controls containing medium alone and virus controls containing medium and virus were run simultaneously with the test compound. […] Plaques visible to the unaided eye were counted and the mean number of plaques in the duplicate wells for each compound concentration tested and for the untreated, virus infected controls were determined.

in vitro [2] = settings: monkey, vero cells, MTC (minimum drug concentration causing any cytotoxicity)
in vitro [3] = settings: human, human foreskin fibroblasts, MTT Assay

In the case of Nc1nc2c(ncn2C2CC(CO)C2CO)c(=O)[nH]1 (stereo not drawn) [Example 1I, 9-(2',3'-Bis(hydroxymethyl)cyclobutyl)guanine], the “Serum DHBV DNA” value ([1]; duck 1, age 6 days, before treatment) is reported as 187 ng/mL, the “Serum DHBV DNA” value ([1]; duck 1, age 7 days, before treatment) is reported as 156 ng/mL and the “Serum DHBV DNA” value ([1]; duck 1, age 8 days, before treatment) is reported as 168 ng/mL. The “Serum DHBV DNA” value ([1]; duck 1, age 9 days, before treatment) was 233 ng/mL, the “Serum DHBV DNA” value ([1]; duck 1, age 10 days, 70 mg/kg/day IP days 10-17) was 213 ng/mL and the “Serum DHBV DNA” value ([1]; duck 1, age 11 days, 70 mg/kg/day IP days 10-17) was 155 ng/mL. The “Serum DHBV DNA” value ([1]; duck 1, age 12 days, 70 mg/kg/day IP days 10-17) was 64 ng/mL, the “Serum DHBV DNA” value ([1]; duck 1, age 13 days, 70 mg/kg/day IP days 10-17) was 11 ng/mL and the “Serum DHBV DNA” value ([1]; duck 1, age 14 days, 70 mg/kg/day IP days 10-17) was 6 ng/mL. The “Serum DHBV DNA” value ([1]; duck 1, age 15 days, 70 mg/kg/day IP days 10-17) was less than 1 ng/mL, the “Serum DHBV DNA” value ([1]; duck 1, age 16 days, 70 mg/kg/day IP days 10-17) was less than 1 ng/mL and the “Serum DHBV DNA” value ([1]; duck 1, age 17 days, 70 mg/kg/day IP days 10-17) was less than 1 ng/mL. The “Serum DHBV DNA” value ([1]; duck 1, age 18 days, 70 mg/kg/day IP days 10-17) was less than 1 ng/mL, the “Serum DHBV DNA” value ([1]; duck 1, age 19 days, 70 mg/kg/day IP days 10-17) was less than 1 ng/mL and the “Serum DHBV DNA” value ([1]; duck 1, age 20 days, 70 mg/kg/day IP days 10-17) was less than 1 ng/mL. The “Serum DHBV DNA” value ([1]; duck 1, age 21 days, 70 mg/kg/day IP days 10-17) was less than 1 ng/mL, the “Serum DHBV DNA” value ([1]; duck 1, age 22 days, 70 mg/kg/day IP days 10-17) was 3 ng/mL and the “Serum DHBV DNA” value ([1]; duck 1, age 23 days, 70 mg/kg/day IP days 10-17) was 12 ng/mL. For the same compound, the “Serum DHBV DNA” value ([1]; duck 1, age 24 days, 70 mg/kg/day IP days 10-17) was 16 ng/mL, the “Serum DHBV DNA” value ([1]; duck 1, age 25 days, 70 mg/kg/day IP days 10-17) was 31 ng/mL and the “Serum DHBV DNA” value ([1]; duck 1, age 26 days, 70 mg/kg/day IP days 10-17) was 71 ng/mL. The “Serum DHBV DNA” value ([1]; duck 1, age 27 days, 70 mg/kg/day IP days 10-17) was 134 ng/mL, the “Serum DHBV DNA” value ([1]; duck 2, age 6 days, before treatment) was 143 ng/mL and the “Serum DHBV DNA” value ([1]; duck 2, age 7 days, before treatment) was 111 ng/mL. For the same compound, the “Serum DHBV DNA” value ([1]; duck 2, age 8 days, before treatment) was 121 ng/mL, the “Serum DHBV DNA” value ([1]; duck 2, age 9 days, before treatment) was 102 ng/mL and the “Serum DHBV DNA” value ([1]; duck 2, age 10 days, 70 mg/kg/day IP days 10-17) was 120 ng/mL. The “Serum DHBV DNA” value ([1]; duck 2, age 11 days, 70 mg/kg/day IP days 10-17) was 61 ng/mL, the “Serum DHBV DNA” value ([1]; duck 2, age 12 days, 70 mg/kg/day IP days 10-17) was 27 ng/mL and the “Serum DHBV DNA” value ([1]; duck 2, age 13 days, 70 mg/kg/day IP days 10-17) was 2 ng/mL. For the same compound, the “Serum DHBV DNA” value ([1]; duck 2, age 14 days, 70 mg/kg/day IP days 10-17) was 1 ng/mL, the “Serum DHBV DNA” value ([1]; duck 2, age 15 days, 70 mg/kg/day IP days 10-17) was less than 1 ng/mL and the “Serum DHBV DNA” value ([1]; duck 2, age 16 days, 70 mg/kg/day IP days 10-17) was less than 1 ng/mL. The “Serum DHBV DNA” value ([1]; duck 2, age 17 days, 70 mg/kg/day IP days 10-17) was less than 1 ng/mL, the “Serum DHBV DNA” value ([1]; duck 2, age 18 days, 70 mg/kg/day IP days 10-17) was less than 1 ng/mL and the “Serum DHBV DNA” value ([1]; duck 2, age 19 days, 70 mg/kg/day IP days 10-17) was less than 1 ng/mL. For the same compound, the “Serum DHBV DNA” value ([1]; duck 2, age 20 days, 70 mg/kg/day IP days 10-17) was less than 1 ng/mL, the “Serum DHBV DNA” value ([1]; duck 2, age 21 days, 70 mg/kg/day IP days 10-17) was less than 1 ng/mL and the “Serum DHBV DNA” value ([1]; duck 2, age 22 days, 70 mg/kg/day IP days 10-17) was less than 1 ng/mL. The “Serum DHBV DNA” value ([1]; duck 2, age 23 days, 70 mg/kg/day IP days 10-17) was less than 1 ng/mL, the “Serum DHBV DNA” value ([1]; duck 2, age 24 days, 70 mg/kg/day IP days 10-17) was less than 1 ng/mL and the “Serum DHBV DNA” value ([1]; duck 2, age 25 days, 70 mg/kg/day IP days 10-17) was 2 ng/mL. The “Serum DHBV DNA” value ([1]; duck 2, age 26 days, 70 mg/kg/day IP days 10-17) was 2 ng/mL, the “Serum DHBV DNA” value ([1]; duck 2, age 27 days, 70 mg/kg/day IP days 10-17) was 7 ng/mL and the “Serum DHBV DNA” value ([1]; duck 3, age 6 days, before treatment) was 520 ng/mL. For the same compound, the “Serum DHBV DNA” value ([1]; duck 3, age 7 days, before treatment) was 311 ng/mL, the “Serum DHBV DNA” value ([1]; duck 3, age 8 days, before treatment) was 277 ng/mL and the “Serum DHBV DNA” value ([1]; duck 3, age 9 days, before treatment) was 412 ng/mL. The “Serum DHBV DNA” value ([1]; duck 3, age 10 days, 70 mg/kg/day IP days 10-17) was 377 ng/mL, the “Serum DHBV DNA” value ([1]; duck 3, age 11 days, 70 mg/kg/day IP days 10-17) was 130 ng/mL and the “Serum DHBV DNA” value ([1]; duck 3, age 12 days, 70 mg/kg/day IP days 10-17) was 77 ng/mL. For the same compound, the “Serum DHBV DNA” value ([1]; duck 3, age 13 days, 70 mg/kg/day IP days 10-17) was 16 ng/mL, the “Serum DHBV DNA” value ([1]; duck 3, age 14 days, 70 mg/kg/day IP days 10-17) was 2 ng/mL and the “Serum DHBV DNA” value ([1]; duck 3, age 15 days, 70 mg/kg/day IP days 10-17) was 2 ng/mL. The “Serum DHBV DNA” value ([1]; duck 3, age 16 days, 70 mg/kg/day IP days 10-17) was less than 1 ng/mL, the “Serum DHBV DNA” value ([1]; duck 3, age 17 days, 70 mg/kg/day IP days 10-17) was less than 1 ng/mL and the “Serum DHBV DNA” value ([1]; duck 3, age 18 days, 70 mg/kg/day IP days 10-17) was less than 1 ng/mL. For the same compound, the “Serum DHBV DNA” value ([1]; duck 4, age 6 days, before treatment) was 288 ng/mL, the “Serum DHBV DNA” value ([1]; duck 4, age 7 days, before treatment) was 215 ng/mL and the “Serum DHBV DNA” value ([1]; duck 4, age 8 days, before treatment) was 256 ng/mL. The “Serum DHBV DNA” value ([1]; duck 4, age 9 days, before treatment) was 311 ng/mL, the “Serum DHBV DNA” value ([1]; duck 4, age 10 days, 70 mg/kg/day IP days 10-17) was 333 ng/mL and the “Serum DHBV DNA” value ([1]; duck 4, age 11 days, 70 mg/kg/day IP days 10-17) was 132 ng/mL. For the same compound, the “Serum DHBV DNA” value ([1]; duck 4, age 12 days, 70 mg/kg/day IP days 10-17) was 21 ng/mL, the “Serum DHBV DNA” value ([1]; duck 4, age 13 days, 70 mg/kg/day IP days 10-17) was 2 ng/mL and the “Serum DHBV DNA” value ([1]; duck 4, age 14 days, 70 mg/kg/day IP days 10-17) was 1 ng/mL. The “Serum DHBV DNA” value ([1]; duck 4, age 15 days, 70 mg/kg/day IP days 10-17) was 1 ng/mL, the “Serum DHBV DNA” value ([1]; duck 4, age 16 days, 70 mg/kg/day IP days 10-17) was 1 ng/mL and the “Serum DHBV DNA” value ([1]; duck 4, age 17 days, 70 mg/kg/day IP days 10-17) was less than 1 ng/mL. The “Serum DHBV DNA” value ([1]; duck 4, age 18 days, 70 mg/kg/day IP days 10-17) was less than 1 ng/mL, the “Serum DHBV DNA” value ([1]; duck 4, age 19 days, 70 mg/kg/day IP days 10-17) was less than 1 ng/mL and the “Serum DHBV DNA” value ([1]; duck 4, age 20 days, 70 mg/kg/day IP days 10-17) was less than 1 ng/mL. For the same compound, the “Serum DHBV DNA” value ([1]; duck 4, age 21 days, 70 mg/kg/day IP days 10-17) was less than 1 ng/mL, the “Serum DHBV DNA” value ([1]; duck 4, age 22 days, 70 mg/kg/day IP days 10-17) was less than 1 ng/mL and the “Serum DHBV DNA” value ([1]; duck 4, age 23 days, 70 mg/kg/day IP days 10-17) was less than 1 ng/mL. For the same compound, the “Serum DHBV DNA” value ([1]; duck 4, age 24 days, 70 mg/kg/day IP days 10-17) was less than 1 ng/mL, the “Serum DHBV DNA” value ([1]; duck 4, age 25 days, 70 mg/kg/day IP days 10-17) was less than 1 ng/mL and the “death of treated ducks” value ([1]; ducks 3 and 4, 70 mg/kg/day IP b.i.d. days 10-17) was “ducks 3 and 4 died on day 18 and day 26, respectively”. For the same compound, the “VR (virus rating, GMTD of experimental/GMTD of diluent-treated control)” value (Herpesvirus 1; 3.2 mg/kg s.c.) was 1.3, the “No. Dead/No. Infected” value (Herpesvirus 1; 3.2 mg/kg s.c. once daily) was 8/10 and the “GMTD (geometric mean time to death)” value (Herpesvirus 1; 3.2 mg/kg s.c.) was 10.8. The “VR (virus rating, GMTD of experimental/GMTD of diluent-treated control)” value (Herpesvirus 1; 10 mg/kg s.c.) was 1.6, the “No. Dead/No. Infected” value (Herpesvirus 1; 10 mg/kg s.c. once daily) was 5/10 and the “GMTD (geometric mean time to death)” value (Herpesvirus 1; 10 mg/kg s.c.) was 13.0. The “VR (virus rating, GMTD of experimental/GMTD of diluent-treated control)” value (Herpesvirus 1; 32 mg/kg s.c.) was 2.5, the “No. Dead/No. Infected” value (Herpesvirus 1; 32 mg/kg s.c. once daily) was 0/10 and the “GMTD (geometric mean time to death)” value (Herpesvirus 1; 32 mg/kg s.c.) was 21.0. It also gave an EC50 (HSV-1(E-377)) of 0.5 µg/mL (≈ 1.88 µM), an MCC (in vitro [2]) of 320 µg/mL and a viability (in vitro [3]; 3.2 ug/ml) of 79%. It also gave a viability (in vitro [3]; 10 ug/ml) of 76%, a viability (in vitro [3]; 32 ug/ml) of 72% and a viability (in vitro [3]; 100 ug/ml) of 62%.
